Source: the NIST ThermoML archive (doi:10.1021/acs.jced.7b00396)

Conditions: for mass density: 700 kPa, Gamma attenuation method; for viscosity: Capillary tube (Ostwald / Ubbelohde) method

C1C[C@@H]2[C@H]3CC[C@H](C3)[C@@H]2C1 [exo-tetrahydrodicyclopentadiene]
Conditions | mass density [kg/m3]
239.8 K, Liquid | 965.9
266.2 K, Liquid | 955.9
290.9 K, Liquid | 945.8
307 K, Liquid | 936.3
337.1 K, Liquid | 917.3
368.4 K, Liquid | 890
391.9 K, Liquid | 877.6
428.7 K, Liquid | 857.3
468.5 K, Liquid | 818.7
483.8 K, Liquid | 779.5
510 K, Liquid | 759.3
532.4 K, Liquid | 737.7
562.1 K, Liquid | 646.3
603.4 K, Gas | 25.5
651.6 K, Gas | 22.9
682.7 K, Gas | 29.4
730.2 K, Gas | 19.5
744.7 K, Gas | 19.7
771.9 K, Gas | 26.4
803.3 K, Gas | 24.4
833 K, Gas | 25.4
873.3 K, Gas | 24.4

Conditions | viscosity [mPa·s]
242.7 K, 690 kPa, Liquid | 10.69
242.7 K, 1700 kPa, Liquid | 10.73
242.7 K, 3000 kPa, Liquid | 10.8
242.7 K, 6000 kPa, Liquid | 10.82
262.4 K, 690 kPa, Liquid | 5.78
262.4 K, 1700 kPa, Liquid | 5.82
262.5 K, 3000 kPa, Liquid | 5.828
262.5 K, 6000 kPa, Liquid | 5.888
303.1 K, 3000 kPa, Liquid | 2.49
303.1 K, 6000 kPa, Liquid | 2.498
303.2 K, 690 kPa, Liquid | 2.479
303.2 K, 1700 kPa, Liquid | 2.483
313.1 K, 690 kPa, Liquid | 1.996
313.2 K, 1700 kPa, Liquid | 2.026
313.2 K, 3000 kPa, Liquid | 2.146
313.2 K, 6000 kPa, Liquid | 2.186
333.1 K, 3000 kPa, Liquid | 1.709
333.1 K, 6000 kPa, Liquid | 1.758
333.2 K, 690 kPa, Liquid | 1.68
333.2 K, 1700 kPa, Liquid | 1.701
353.1 K, 690 kPa, Liquid | 1.142
353.1 K, 3000 kPa, Liquid | 1.234
353.1 K, 6000 kPa, Liquid | 1.268
353.2 K, 1700 kPa, Liquid | 1.165
373.1 K, 690 kPa, Liquid | 0.8868
373.1 K, 1700 kPa, Liquid | 0.9068
373.2 K, 3000 kPa, Liquid | 0.9467
373.2 K, 6000 kPa, Liquid | 0.9789
393 K, 3000 kPa, Liquid | 0.7365
393.1 K, 1700 kPa, Liquid | 0.7265
393.2 K, 690 kPa, Liquid | 0.7065
393.4 K, 6000 kPa, Liquid | 0.7661
412.9 K, 3000 kPa, Liquid | 0.5811
413.1 K, 1700 kPa, Liquid | 0.5518
413.1 K, 6000 kPa, Liquid | 0.6028
413.2 K, 690 kPa, Liquid | 0.5267
433.1 K, 1700 kPa, Liquid | 0.4372
433.1 K, 3000 kPa, Liquid | 0.4776
433.2 K, 690 kPa, Liquid | 0.4172
433.2 K, 6000 kPa, Liquid | 0.4992
453.1 K, 690 kPa, Liquid | 0.3605
453.1 K, 1700 kPa, Liquid | 0.4005
453.1 K, 6000 kPa, Liquid | 0.4321
453.2 K, 3000 kPa, Liquid | 0.3903
473.1 K, 6000 kPa, Liquid | 0.3675
473.2 K, 690 kPa, Liquid | 0.3123
473.2 K, 1700 kPa, Liquid | 0.3003
473.2 K, 3000 kPa, Liquid | 0.3204
493.1 K, 6000 kPa, Liquid | 0.3055
493.2 K, 690 kPa, Liquid | 0.2255
493.2 K, 1700 kPa, Liquid | 0.2552
493.2 K, 3000 kPa, Liquid | 0.2752
513.1 K, 6000 kPa, Liquid | 0.2964
513.2 K, 690 kPa, Liquid | 0.2054
513.2 K, 1700 kPa, Liquid | 0.2204
513.2 K, 3000 kPa, Liquid | 0.2264
533.2 K, 690 kPa, Liquid | 0.1602
533.2 K, 1700 kPa, Liquid | 0.1809
533.4 K, 3000 kPa, Liquid | 0.1837
533.4 K, 6000 kPa, Liquid | 0.2139
552.9 K, 690 kPa, Liquid | 0.1309
552.9 K, 1700 kPa, Liquid | 0.1509
553.3 K, 6000 kPa, Liquid | 0.1899
553.5 K, 3000 kPa, Liquid | 0.1502
573.3 K, 6000 kPa, Liquid | 0.1554
573.4 K, 690 kPa, Gas | 0.0304
573.4 K, 1700 kPa, Liquid | 0.1254
573.4 K, 3000 kPa, Liquid | 0.1354
593.2 K, 690 kPa, Gas | 0.0324
593.2 K, 1700 kPa, Gas | 0.0394
593.2 K, 6000 kPa, Liquid | 0.1453
593.3 K, 3000 kPa, Gas | 0.1154
613 K, 3000 kPa, Gas | 0.1016
613.4 K, 6000 kPa, Liquid | 0.1316
613.6 K, 690 kPa, Gas | 0.0288
613.6 K, 1700 kPa, Gas | 0.0389
633.3 K, 3000 kPa, Gas | 0.0977
633.3 K, 6000 kPa, Liquid | 0.1177
633.4 K, 690 kPa, Gas | 0.0338
633.4 K, 1700 kPa, Gas | 0.0371
653.3 K, 690 kPa, Gas | 0.0277
653.3 K, 1700 kPa, Gas | 0.0328
653.4 K, 3000 kPa, Gas | 0.0898
653.5 K, 6000 kPa, Liquid | 0.0991
672.3 K, 3000 kPa, Gas | 0.0804
673.2 K, 6000 kPa, Liquid | 0.0956
673.3 K, 690 kPa, Gas | 0.0265
673.3 K, 1700 kPa, Gas | 0.0302
692.5 K, 690 kPa, Gas | 0.0311
692.5 K, 1700 kPa, Gas | 0.0321
692.5 K, 3000 kPa, Gas | 0.0768
692.5 K, 6000 kPa, Liquid | 0.0927
713.8 K, 690 kPa, Gas | 0.0276
713.8 K, 1700 kPa, Gas | 0.0294
713.8 K, 3000 kPa, Gas | 0.0689
713.8 K, 6000 kPa, Gas | 0.0889
734 K, 690 kPa, Gas | 0.0303
734 K, 1700 kPa, Gas | 0.0324
734 K, 3000 kPa, Gas | 0.0645
734 K, 6000 kPa, Gas | 0.0844
753.3 K, 690 kPa, Gas | 0.0324
753.3 K, 1700 kPa, Gas | 0.0352
753.3 K, 3000 kPa, Gas | 0.0628
753.3 K, 6000 kPa, Gas | 0.0828

CCCCCCCC [octane]
5100 kPa, Liquid
Conditions | viscosity [mPa·s]
303.2 K | 0.5014
353.1 K | 0.3078
403.2 K | 0.207
453.1 K | 0.1465
503 K | 0.1049
553.4 K | 0.0692
